Results: patent publication US20240327376A1, “PICOLINAMIDE COMPOUNDS AS SELECTIVE PHD1 INHIBITORS, COMPOSITIONS, AND METHODS OF USE” (Akebia Therapeutics, Inc., priority 2021, published 2024)

Molecular target: T1, full-length human PHD1 (selectivity versus full-length human PHD2) (Homo sapiens, UniProt Q96KS0)
T1 construct: purchased Active Motif (Carlsbad, CA, USA) 81064; host or cells: baculovirus expression system
Assay: TR-FRET assay of PHD enzymes (IC50; Ki by Cheng-Prusoff; selectivity as ratio of Kis)
Format: biochemical
Settings: ratio of Kis in the PHD1 and PHD2 TR-FRET assays; Ki=IC50/(1+[2-OG]/Km), 1 uM 2-OG
Excerpt: Time-resolved fluorescence resonance energy transfer (TR-FRET) assay was utilized to determine the enzymatic half maximal inhibitory concentration (IC50) value of PHD inhibitors against the full-length human prolyl-4-hydroxylase domain (PHD) enzymes, PHD1 and PHD2. The TR-FRET assay was developed based on the specific binding of hydroxylated HIF-1α peptide with the complex formed by VHL, EloB and EloC (VBC), to generate a fluorescent signal. Terbium (Tb)-Donor (monoclonal antibody anti-6His-Tb-cryptate Gold) and D2-acceptor (streptavidin [SA]-D2) of TR-FRET are linked to the VBC complex and to HIF-1a peptide, respectively. The VBC complex binds specifically to the HIF-1a peptide when it is hydroxylated, allowing energy transfer from TR-FRET donor to acceptor (FIG. 1).
TR-FRET Reagents. Monoclonal antibody anti-6His-Tb-cryptate Gold (catalog #61HI2TLA) and streptavidin (SA)-D2 (catalog #610SADLA) were purchased from CisBio International (Bedford, MA, USA).
N-terminus biotinylated HIF-1α C35 synthetic peptide representing amino acids 547 to 581 and including the proline 564 PHD2 hydroxylation site was purchased from California Peptide Research (Salt Lake City, UT, USA).
VBC complex. His-tagged recombinant VHL protein, EloB, EloC complex (His-VBC) was supplied by Axxam (Milan, Italy). Recombinant human VHL (National Center for Biotechnology Information [NCBI] accession number NP_00542.1) contained a His tag at the C-terminus of amino acids 55 to 213 and is referred to as VHL-His. VHL-His was co-expressed in E. coli with full-length human EloB (NCBI accession number Q15370.1) and full-length human EloC (NCBI accession number Q15369.1) and purified by affinity chromatography on a nickel-nitrilotriacetic acid (Ni-NTA) column as the His-VBC complex. Purity (˜80%) was assessed by sodium dodecyl sulfate polyacrylamide gel electrophoresis (SDS-PAGE).
PHD1. Recombinant human PHD1 protein (catalog #81064, Lot #24717001) was purchased from Active Motif (Carlsbad, CA, USA). PHD1 was expressed in a baculovirus expression system as the full-length protein (NCBI accession number NP_542770.2) with an N-terminal FLAG tag (molecular weight 44.9 kDa). Purity (>90%) was assessed by SDS-PAGE.
PHD2. The full-length human PHD2 enzyme was produced with a baculovirus infected insect cell (BIIC) expression system by Beryllium (Bedford, MA, USA). The PHD2 construct contained amino acids 1 to 426 of PHD2 (UniProt Knowledgebase[UniProtKB]/Swiss-Prot accession number Q9GZT9.1), and a His tag and a Tobacco Etch Virus (TEV) protease cleavage site at the N-terminus. The construct was expressed in Sf9 insect cells, purified by Ni-NTA column and digested with TEV protease to remove the His tag.
TR-FRET Assay Procedure. PHD inhibitor compound was preincubated with PHD enzyme in a 10 μL reaction volume in white 384-well Optiplate microplates (catalog #6007290, Perkin Elmer, Waltham, MA, USA). For this, 5 μL of PHD inhibitor compound was serially diluted with dilution buffer (50 mM HEPES [4-(2-hydroxyethyl)-1-piperazineethanesulfonic acid] pH 7.5, 50 mM sodium chloride [NaCl], 0.01% Tween-20, 0.01% purified bovine serum albumin [BSA]) and mixed with 5 μL PHD enzyme mix prepared as a 4× concentrate in the dilution buffer containing PHD enzyme (60 nM PHD1, 20 nM PHD2, 140 nM PHD3), 40 μM ferrous ammonium sulfate (FAS), 4 mM sodium (Na) ascorbate. The plates were incubated for 30 minutes at room temperature without rotation.
Five microliters of the VBC/anti-6His-Tb-cryptate Gold mix prepared as a 4× concentrate in dilution buffer containing 20 nM His-VBC, 1.32 nM monoclonal antibody anti-6His-Tb-cryptate Gold was then added. This step was followed immediately by the addition of […] of the HIF-1a C35 substrate mix prepared as a 4× concentrate in the dilution buffer containing 120 nM biotin-labeled HIF-1a C35, 132 nM SA-D2, 4 μM 2-oxoglutarate (2-OG) to reach a final reaction volume of 20 μL. […]

T1 sequence (Q96KS0 whole entry): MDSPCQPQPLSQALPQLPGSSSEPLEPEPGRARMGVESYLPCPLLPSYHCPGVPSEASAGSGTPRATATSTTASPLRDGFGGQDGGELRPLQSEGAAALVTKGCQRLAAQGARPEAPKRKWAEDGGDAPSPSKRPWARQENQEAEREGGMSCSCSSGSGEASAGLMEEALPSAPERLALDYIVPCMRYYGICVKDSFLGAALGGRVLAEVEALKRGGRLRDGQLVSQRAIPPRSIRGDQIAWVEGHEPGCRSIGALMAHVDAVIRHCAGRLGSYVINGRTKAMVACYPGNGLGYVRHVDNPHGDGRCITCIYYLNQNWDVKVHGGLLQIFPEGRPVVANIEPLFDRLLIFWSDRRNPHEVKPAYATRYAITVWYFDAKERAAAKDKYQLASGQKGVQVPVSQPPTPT

| Structure (SMILES) | Selectivity of PHD1 over PHD2 [fold] |
| --- | --- |
| O=C(NCC1(C(=O)O)CC1)c1ncc(-c2ccc3ccccc3c2)cc1O [Compound 1, 1-((3-hydroxy-5-(naphthalen-2-yl)picolinamido)methyl)cyclopropane-1-carboxylic acid] | ~219 |
| O=C(NCC1(C(=O)O)CCC1)c1ncc(-c2ccc3ccccc3c2)cc1O [Compound 2, 1-((3-hydroxy-5-(naphthalen-2-yl)picolinamido)methyl)cyclobutane-1-carboxylic acid] | ~1258 |
| O=C(NCC1(C(=O)O)CC1)c1ncc(-c2cccc(Cl)c2)cc1O [Compound 3, 1-((5-(3-chlorophenyl)-3-hydroxypicolinamido)methyl)cyclopropane-1-carboxylic acid] | ~338 |
| O=C(NCC1(C(=O)O)CCC1)c1ncc(-c2cccc(Cl)c2)cc1O [Compound 4, 1-((5-(3-chlorophenyl)-3-hydroxypicolinamido)methyl)cyclobutane-1-carboxylic acid] | ~6 |
| O=C(NCC1(C(=O)O)CC1)c1ncc(-c2cnn(-c3ccccc3)c2)cc1O [Compound 5, 1-((3-hydroxy-5-(1-phenyl-1H-pyrazol-4-yl)picolinamido)methyl)cyclopropane-1-carboxylic acid] | ~61 |
| O=C(NC[C@H](O)C(=O)O)c1ncc(-c2cccc(Cl)c2)cc1O [Compound 6, (S)-3-(5-(3-chlorophenyl)-3-hydroxypicolinamido)-2-hydroxypropanoic acid] | ~11 |
| O=C(NC[C@H](O)C(=O)O)c1ncc(-c2ccc3ccccc3c2)cc1O [Compound 7, (S)-2-hydroxy-3-(3-hydroxy-5-(naphthalen-2-yl)picolinamido)propanoic acid] | ~16 |
| O=C(NC[C@@H](O)C(=O)O)c1ncc(-c2ccc3ccccc3c2)cc1O [Compound 8, (R)-2-hydroxy-3-(3-hydroxy-5-(naphthalen-2-yl)picolinamido)propanoic acid] | ~100 |
| O=C(NC[C@@H](O)C(=O)O)c1ncc(-c2cccc(Cl)c2)cc1O [Compound 9, (R)-3-(5-(3-chlorophenyl)-3-hydroxypicolinamido)-2-hydroxypropanoic acid] | ~13 |
| O=C(NC[C@H](O)C(=O)O)c1ncc(-c2cnn(-c3ccccc3)c2)cc1O [Compound 10, (S)-2-hydroxy-3-(3-hydroxy-5-(1-phenyl-1H-pyrazol-4-yl)picolinamido)propanoic acid] | ~29 |
| O=C(NC[C@@H](O)C(=O)O)c1ncc(-c2cnn(-c3ccccc3)c2)cc1O [Compound 11, (R)-2-hydroxy-3-(3-hydroxy-5-(1-phenyl-1H-pyrazol-4-yl)picolinamido)propanoic] | ~42 |
| O=C(NCC1(C(=O)O)CCC1)c1ncc(-c2cnn(-c3ccccc3)c2)cc1O [Compound 12, 1-((3-hydroxy-5-(1-phenyl-1H-pyrazol-4-yl)picolinamido)methyl)cyclobutane-1-carboxylic acid] | ~36 |
| O=C(NCC1(C(=O)O)CCCCC1)c1ncc(-c2cnn(-c3ccccc3)c2)cc1O [Compound 13, 1-((3-hydroxy-5-(1-phenyl-1H-pyrazol-4-yl)picolinamido)methyl)cyclohexane-1-carboxylic acid] | ~2 |
| O=C(NCC1(C(=O)O)CCOCC1)c1ncc(-c2cnn(-c3ccccc3)c2)cc1O [Compound 14, 4-((3-hydroxy-5-(1-phenyl-1H-pyrazol-4-yl)picolinamido)methyl)tetrahydro-2H-pyran-4-carboxylic acid] | ~51 |
| O=C(O)CC1(NC(=O)c2ncc(-c3cnn(-c4ccccc4)c3)cc2O)CC1 [Compound 15, 2-(1-(3-hydroxy-5-(1-phenyl-1H-pyrazol-4-yl)picolinamido)cyclopropyl)acetic acid] | ~10 |
| O=C(O)CC1(NC(=O)c2ncc(-c3cnn(-c4ccccc4)c3)cc2O)CCC1 [Compound 16, 2-(1-(3-hydroxy-5-(1-phenyl-1H-pyrazol-4-yl)picolinamido)cyclobutyl)acetic acid] | ~2 |
| O=C(NCC1(C(=O)O)CCCC1)c1ncc(-c2cnn(-c3ccccc3)c2)cc1O [Compound 17, 1-((3-hydroxy-5-(1-phenyl-1H-pyrazol-4-yl)picolinamido)methyl)cyclopentane-1-carboxylic acid] | ~8 |
